Test results from patent US12622910B2, “Inhibitors of Bruton's tyrosine kinase and methods of their use” (Janssen Pharmaceutica NV, priority 2021, dated 2026).
Like-named read-outs stand apart in the source and are kept apart here. Marks after values point to notes of the source that are not given here.

How the values were obtained:
A1 (h) = A1 (h) (Homo sapiens, UniProt P30542); test: Receptor panel, Study 1; type: binding
Description: (§1) RESULTS AND DISCUSSION—Selectivity—The compound of Formula (III) was evaluated in three selectivity panels to assess the potential for off-target pharmacology (Table 8). […] The kinase off-target profile of The compound of Formula (III) was assessed in a full human wild-type panel using radiometric kinase activity assays (KinaseProfiler™ and IC50Profiler™; Eurofins Scientific) (Table 9; FIG. 23). The compound of Formula (III) inhibited 4/278 kinases >50% at 1 micromolar, identifying BTK and the three other kinases having analogous Cys residues with the potential for covalent inhibition (BMX, TEC, BLK). […]. The cellular kinase selectivity of The compound of Formula (III) was established in native Ramos B cell kinome assays (KiNativ™; ActivX) confirmed BTK as the primary target with inhibition of BLK and TEC inhibition detected (Table 10).

D1 (h) = D1 (h) (Homo sapiens, UniProt P21728); test: Receptor panel, Study 1; type: binding
Sequence of D1 (h) (P21728 whole entry): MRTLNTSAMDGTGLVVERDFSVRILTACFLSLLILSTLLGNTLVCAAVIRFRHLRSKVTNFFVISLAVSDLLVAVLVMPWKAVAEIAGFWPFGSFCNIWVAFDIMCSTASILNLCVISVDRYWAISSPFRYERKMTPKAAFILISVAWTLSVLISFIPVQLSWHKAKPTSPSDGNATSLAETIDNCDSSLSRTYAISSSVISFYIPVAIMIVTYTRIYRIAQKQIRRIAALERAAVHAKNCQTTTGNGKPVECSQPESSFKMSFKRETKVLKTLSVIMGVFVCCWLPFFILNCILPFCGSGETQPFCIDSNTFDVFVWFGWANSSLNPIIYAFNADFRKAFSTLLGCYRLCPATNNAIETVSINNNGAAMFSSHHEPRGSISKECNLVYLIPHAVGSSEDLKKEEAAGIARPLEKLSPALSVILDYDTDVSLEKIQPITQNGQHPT
Description: as §1

NT1 (h) (NTS1) = NT1 (h) (NTS1) (Homo sapiens, UniProt P30989); test: Receptor panel, Study 1; type: binding
Sequence of NT1 (h) (NTS1) (P30989 whole entry): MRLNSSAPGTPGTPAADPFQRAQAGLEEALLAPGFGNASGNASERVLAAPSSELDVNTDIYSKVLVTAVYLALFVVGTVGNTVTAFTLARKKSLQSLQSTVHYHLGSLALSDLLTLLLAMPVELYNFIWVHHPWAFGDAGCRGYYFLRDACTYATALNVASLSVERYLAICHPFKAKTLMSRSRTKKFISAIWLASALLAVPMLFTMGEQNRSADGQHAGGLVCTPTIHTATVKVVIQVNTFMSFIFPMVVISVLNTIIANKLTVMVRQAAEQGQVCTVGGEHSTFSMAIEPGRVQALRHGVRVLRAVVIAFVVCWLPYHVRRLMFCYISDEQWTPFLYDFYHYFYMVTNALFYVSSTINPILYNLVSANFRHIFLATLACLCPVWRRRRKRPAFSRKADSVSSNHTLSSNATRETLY
Description: as §1

mu (h) (MOP) = mu (h) (MOP) (Homo sapiens, UniProt P35372); test: Receptor panel, Study 1; type: binding
Sequence of mu (h) (MOP) (P35372 whole entry): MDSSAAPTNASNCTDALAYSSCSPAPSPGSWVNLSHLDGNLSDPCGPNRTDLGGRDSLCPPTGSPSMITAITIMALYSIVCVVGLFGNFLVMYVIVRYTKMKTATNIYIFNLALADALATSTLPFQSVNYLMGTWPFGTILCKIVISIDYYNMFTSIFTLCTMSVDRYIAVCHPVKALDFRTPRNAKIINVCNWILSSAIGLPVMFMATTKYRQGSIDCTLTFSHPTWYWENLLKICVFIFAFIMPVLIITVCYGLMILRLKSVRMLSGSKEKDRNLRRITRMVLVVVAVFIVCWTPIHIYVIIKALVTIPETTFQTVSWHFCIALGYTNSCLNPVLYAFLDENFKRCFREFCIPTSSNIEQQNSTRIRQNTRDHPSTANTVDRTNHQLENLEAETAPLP
Description: as §1

[1] = Protein binding in RPMI culture media containing 10% FBS; type: in vitro ADME; details: bovine, read-out: % free in RPMI culture media containing 10% FBS
[2] = Blood-to-plasma concentration ratio; type: in vitro ADME; details: rat, fresh blood
AhR = test: Puracyp DRE luciferase-reporter cell line (CYP1A2 induction); type: in vitro ADME
Description: To assess the potential of the compound of Formula (III) to be a time-dependent inhibitor of CYP3A, human liver microsomes were preincubated for 30 minutes at 37° C. with the compound of Formula (III) at concentrations up to 10 μM, and CYP3A activity was measured using testosterone as a probe substrate. […] The potential of the compound of Formula (III) to induce CYPs at the transcriptional level was assessed using Puracyp™ DPX2 (CYP3A4, PXR) and DRE (CYP1A2, AhR) luciferase-reporter cell lines; rifampicin and omeprazole were used as positive controls for CYP3A and CYP1A induction, respectively. The activation by the compound of Formula (III) was <20% of positive control values for PXR (6.6% and 14.1% at 1 and 10 μM change, respectively) or AhR (0.1% and 0.3% change, respectively). […] Potential involvement of various CYP isoforms in the metabolism of the compound of Formula (III) was investigated by measuring the parent compound remaining after 1-hour incubation with the compound of Formula (III) (1 μM) with recombinant CYPs (rCYPs) at 100 pmol P450/mL in the presence of 1 mM NADPH at 37° C. The only isozyme that produced notable the compound of Formula (III) turnover with <1% parent remaining after 1-hour incubation was CYP3A4 (FIG. 24). […]

[3] = Covalent binding to hepatic proteins in human hepatocytes (14C label); type: in vitro ADME
Description: The extent of the compound of Formula (III) covalent binding to hepatic proteins was determined in human hepatocytes at 1 and 10 μM (Table 19). A ^14C label was introduced at the acrylamide carbonyl carbon of the compound of Formula (III). […] Troglitazone and pioglitazone served as positive and negative controls, respectively.

[4] = Preclinical PK, oral and IV; type: in vivo, rat; details: for Cmax / Tmax / AUC(0-inf): po, 5 mg/kg; for AUC(0-inf): read-out: Oral AUCinf
[5] = Preclinical PK, oral and IV; details: dog, in vivo
[6] = system: OCI-LY3 (Myd88/CARD11/A20 mutant); test: Antiproliferative activity, 8 days; type: cell-based, human
Description: In Vitro Activity in DLBCL Cell Lines—NFκB signaling regulates the secretion of multiple cytokines, including interleukin (IL)-6 and IL-10. Secretion of IL-6 and -10 by ABC-DLBCL OCI-LY-10 cells was measured using a MesoScale assay. […] To determine the anti-proliferative activity of the compound of formula (III), several ABC-DLBCL cell lines—OCI-LY-3, OCI-LY-10, TMD8, and HBL-1—were treated for 8 days. […] The OCI-LY-3 cell line, which harbors a CARD11 mutation downstream of BTK in the NF-κB signaling pathway, was completely insensitive to the compound of Formula (III) up to 2 μM. In 2 experiments, OCI-LY-3 cells were insensitive to the compound of Formula (III) at all concentrations up to 10 μM.

[7] = system: receptors, enzymes, and ion channels; test: Panel of diverse proteins (54 test targets); type: binding; details: 10 μM
Description: as §1

BTK [8] = molecular target: T1, BTK (Homo sapiens, UniProt Q06187); test: ActivX KiNativ native kinase profiling, Ramos cell lysates; type: binding; design: endogenous in cells
T1 sequence (Q06187 whole entry): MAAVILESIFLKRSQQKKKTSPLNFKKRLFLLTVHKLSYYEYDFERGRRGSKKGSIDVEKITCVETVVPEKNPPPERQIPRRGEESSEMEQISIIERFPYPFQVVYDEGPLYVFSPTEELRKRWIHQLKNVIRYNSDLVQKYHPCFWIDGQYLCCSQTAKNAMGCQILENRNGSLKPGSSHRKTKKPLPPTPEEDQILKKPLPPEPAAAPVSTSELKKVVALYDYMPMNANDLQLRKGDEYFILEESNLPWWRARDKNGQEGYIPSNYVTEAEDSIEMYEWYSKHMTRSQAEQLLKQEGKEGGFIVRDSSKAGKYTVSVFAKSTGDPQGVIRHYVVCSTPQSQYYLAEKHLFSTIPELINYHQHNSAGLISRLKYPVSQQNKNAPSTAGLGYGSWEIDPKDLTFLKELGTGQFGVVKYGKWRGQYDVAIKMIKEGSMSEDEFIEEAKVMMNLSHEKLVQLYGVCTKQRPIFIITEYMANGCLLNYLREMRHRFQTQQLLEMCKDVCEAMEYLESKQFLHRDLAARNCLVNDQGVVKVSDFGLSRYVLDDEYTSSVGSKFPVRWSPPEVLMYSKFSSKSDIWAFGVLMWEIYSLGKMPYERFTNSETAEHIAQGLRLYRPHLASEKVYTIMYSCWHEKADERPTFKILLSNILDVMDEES
Description: as §1

BTK [9] = molecular target: T1, BTK; test: Ramos B cell BTK occupancy assay (probe ELISA); type: cell-based; design: endogenous in cells
Description: In vitro cellular target engagement-The dose-response of BTK occupancy was assessed using a Ramos B cell occupancy assay. Irreversible reaction with […] excludes it from further reaction and enables selective detection of the free (unreacted) BTK with a chemical probe, which utilizes the same binding site and reaction mechanism as the compound of formula (III). The probe carries a biotin sidechain to tag free BTK with an affinity handle to enable detection by ELISA.

[10] = rat, in vivo, 5 mg/kg crystalline suspension PO (0.5% HPMC)
[11] = rat, in vivo, 5 mg/kg solution PO (20% HPβCD)

Sequence of A1 (h) (P30542 whole entry): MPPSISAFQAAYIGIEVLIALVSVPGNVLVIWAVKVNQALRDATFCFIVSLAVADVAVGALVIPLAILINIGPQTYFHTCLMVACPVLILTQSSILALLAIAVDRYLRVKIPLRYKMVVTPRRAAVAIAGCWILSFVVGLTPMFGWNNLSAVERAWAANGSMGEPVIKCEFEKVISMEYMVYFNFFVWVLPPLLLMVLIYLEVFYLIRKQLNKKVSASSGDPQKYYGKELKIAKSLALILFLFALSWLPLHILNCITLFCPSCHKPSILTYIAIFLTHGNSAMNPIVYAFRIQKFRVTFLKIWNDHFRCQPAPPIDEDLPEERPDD

SMILES: C=CC(=O)N[C@H]1CCC[C@H]1NC(=O)c1sc2nccc3c2c1NC(=O)N3c1cnc(CC(C)C)cc1C (atropisomer, axis not shown) [compound of Formula (III), N-((1R,2S)-2-Acrylamidocyclopentyl)-5-(S)-(6-isobutyl-4-methylpyridin-3-yl)-4-oxo-4,5-dihydro-3H-1-thia-3,5,8-triazaacenaphthylene-2-carboxamide]
- inhibition at 10 µM (A1 (h)): < 10%
- inhibition at 10 µM (D1 (h)): < 10%
- inhibition at 10 µM (NT1 (h) (NTS1)): < 10%
- inhibition at 10 µM (mu (h) (MOP)): < 10%
- fraction unbound at 1 μM [1]: 0.317
- blood plasma ratio at 1 μM [2]: 1.37
- AhR activation, % of positive control (omeprazole) (AhR; 1 μM): 0.1%
- AhR activation, % of positive control (omeprazole) (AhR; 10 μM): 0.3%
- Compound Turnover ([3]; 1 μM study): 49.1%
- Fraction Covalently Bound (fcvb) ([3]; 1 μM study): 0.07 ± 0.01
- Net Covalent Binding ([3]; 1 μM study, 0.5×10^6 cells/mL, 4.5 h): 46.8 ± 5.1 pmol eq/mg protein
- Compound Turnover ([3]; 10 μM study): 70.1%
- Fraction Covalently Bound (fcvb) ([3]; 10 μM study): 0.00564 ± 0.0001
- Net Covalent Binding ([3]; 10 μM study, 0.75×10^6 cells/mL, 3 h): 50.0 ± 0.8 pmol eq/mg protein
- F ([4]; 5 mg/kg crystalline suspension PO (0.5% HPMC)): 41 ± 19^b %
- F ([4]; 5 mg/kg solution PO (20% HPβCD)): 28 ± 6^a; %
- clearance ([4]; rat, in vivo, iv): 55 ± 2 mL/min/kg
- half-life ([4]; rat, in vivo, iv, read-out: IV T1/2 (converted)): 24 min
- Vd ([4]; rat, in vivo, iv, read-out: Vss): 1.9 ± 0.2 L/kg
- Cmax [4, 10]: 133 ± 53 ng/mL
- Tmax [4, 10]: 1.7 ± 0.6 h
- AUC(0-inf) [4, 10]: 626 ± 290 ng·h/mL
- Cmax [4, 11]: 189 ± 81 ng/mL
- Tmax [4, 11]: 0.5 h
- AUC(0-inf) [4, 11]: 425 ± 96 ng·h/mL
- clearance ([5]; iv): 11 ± 3 mL/min/kg
- half-life ([5]; iv, read-out: IV T1/2 (converted)): 66 ± 6 min
- Vd ([5]; iv, read-out: Vss): 0.8 ± 0.2 L/kg
- Cmax ([5]; oral): 890 ± 286 ng/mL
- Tmax ([5]; oral): 48 ± 18 min
- AUC(0-inf) ([5]; oral, read-out: Oral AUCinf): 1960 ± 421 ng·h/mL
- sensitivity at all concentrations up to 10 μM ([6]; 2 experiments): insensitive
- IC50 ([6]; Homo sapiens, OCI-Ly3, 192 h, 8 days, n = 4): > 2000 nM
- binding in off-target panel [7]: did not bind >50% at 10 μM for any of the 54 test targets
- inhibition at 1 µM (BTK [8]; Lys labelling): 90.3%
- inhibition at 1 µM (BTK [8]; activation loop labeling): 94.4%
- time to full BTK occupancy (BTK [9]; 100 and 300 nM): ≤ 40 min
- IC50 (BTK [9]; Ramos B cells, n=11, read-out: BTK occupancy IC50 (mean±SD)): 21 ± 7 nM
